In brackets after ≈: the same amount, converted by molar mass.
Legend:
Assay in all cases: minimal inhibitory concentration (MIC), agar streak test
Assay type in all cases: cell-based
S. marcescens 35 = details: Serratia marcescens, heart infusion agar, 37° C., 20 hours, 10^8 viable cells per ml
Method: (§1) One loopful of an overnight culture of each test strain in Trypticase-soy broth (10^8 viable cells per ml.) was streaked on heart infusion agar (HI-agar) containing graded concentrations of antibiotics, and the minimal inhibitory concentration (MIC) was expressed in terms of μg/ml after incubation at 37° C. for 20 hours.

B. subtilis ATCC 6633 = details: Bacillus subtilis, ATCC6633, heart infusion agar, 37° C., 20 hours, 10^8 viable cells per ml
Method: as §1

Ps. aeruginosa 2 = details: Pseudomonas aeruginosa, heart infusion agar, 37° C., 20 hours, 10^8 viable cells per ml
Method: as §1

Row | SMILES | MIC (S. marcescens 35) | MIC (B. subtilis ATCC 6633) | MIC (Ps. aeruginosa 2)
1 | CCO/N=C(\C(=O)NC1C(=O)N2C(C(=O)[O-])=C(C[n+]3cccc(Cl)c3)CSC12)c1nsc(N)n1 (stereo not drawn) [(3)] | 3.13 µg/mL (≈ 5.97 µM) | 0.78 µg/mL (≈ 1.49 µM) | 6.25 µg/mL (≈ 11.9 µM)
2 | CCO/N=C(\C(=O)NC1C(=O)N2C(C(=O)[O-])=C(C[n+]3ccc(CCCO)cc3)CSC12)c1nsc(N)n1 (stereo not drawn) [(5)] | 1.56 µg/mL (≈ 2.85 µM) | 0.78 µg/mL (≈ 1.42 µM) | 12.5 µg/mL (≈ 22.8 µM)
3 | CCO/N=C(\C(=O)NC1C(=O)N2C(C(=O)[O-])=C(C[n+]3cccc(CO)c3)CSC12)c1nsc(N)n1 (stereo not drawn) [(1)] | 3.13 µg/mL (≈ 6.02 µM) | 0.78 µg/mL (≈ 1.5 µM) | 6.25 µg/mL (≈ 12 µM)
4 | CCO/N=C(\C(=O)NC1C(=O)N2C(C(=O)[O-])=C(C[n+]3ccc(CO)cc3)CSC12)c1nsc(N)n1 (stereo not drawn) [(2)] | 1.56 µg/mL (≈ 3 µM) | 0.78 µg/mL (≈ 1.5 µM) | 12.5 µg/mL (≈ 24.1 µM)
5 | CCO/N=C(\C(=O)NC1C(=O)N2C(C(=O)[O-])=C(C[n+]3cc(C)cc(C)c3)CSC12)c1nsc(N)n1 (stereo not drawn) [(4)] | 3.13 µg/mL (≈ 6.05 µM) | 1.56 µg/mL (≈ 3.01 µM) | 6.25 µg/mL (≈ 12.1 µM)

From US4457928A, “Cephem compounds” (Fujisawa Pharmaceutical Co., Ltd., priority 1980, dated 1984)
